Tests used:
intact SS cells = assay: Inhibition of hypoxia-induced RBC sickling (RBC morphology study) in homozygous SS blood; assay type: cell-based, human; details: SS blood hematocrit 20%, 2.5% oxygen, 37° C., 2 hr
Text: (§1) Materials and General Procedure: Leftover blood samples from patients with homozygous SS were obtained and utilized, based on an approved IRB protocol at the Children's Hospital of Philadelphia, with informed consent.
(§2) Experimental Procedure: The MMA series of compounds (MMA-301, MMA-304, MMA-205, MMA-401, MMA-402, MMA-403, MMA-405, MMA-406, MMA-407, MMA-408, MMA-409 and MMA-410) and the positive controls vanillin and 5-HMF were studied for their abilities to inhibit hypoxia-induced RBC sickling (RBC morphology study), increase Hb oxygen, and/or modify Hb (adduct formation) as previously published.^31,33 Briefly, homozygous SS blood (hematocrit: 20%) suspensions were incubated under air in the absence or presence of 2 and/or 5 mM concentration of test compounds at 37° C. for 1 hr. Following, the suspensions were incubated under hypoxic condition (2.5% oxygen) at 37° C. for 2 hr. Aliquot samples were fixed with 2% glutaraldehyde solution without exposure to air, and then subjected to microscopic morphological analysis. The residual samples were washed in phosphate-buffered saline, and hemolyzed in hypotonic lysis buffer for the Hb oxygen equilibrium and Hb adduct experiments. For the Hb oxygen equilibrium study, approximately 100 μl aliquot samples from the lysate were added to 4 ml of 0.1M potassium phosphate buffer, pH 7.0, in a cuvette and subjected to hemoximetry analysis using Hemox™ Analyzer (TCS Scientific Corp.) to assess P50 shifts. Another aliquot from the lysate was also subjected to Hb adduct formation study using cation-exchange HPLC (Hitachi D-7000 Series, Hitachi Instruments, Inc., San Jose, Calif.) with a weak cation-exchange column (Poly CAT A: 30 mm×4.6 mm, Poly LC, Inc., Columbia, Md.). To determine the binding of the MMA compounds to either α- or β-globin chains, the hemolysates were subjected to reversed-phase (RP) HPLC on a Hitachi D-7000 HSM Series, using a Jupiter 5 μm C-4 50×4.6 mm column, (Phenomenex®, Torrence, Calif.) and a gradient from 20% to 60% acetonitrile in 0.3% trifluoroacetic acid in 15 minutes, with UV detection at 215 nm.

Hb [1] = target: T1, Hb (Homo sapiens, UniProt P68871+P69905, E7V); assay: Hb oxygen equilibrium study (P50 shift, Hemox Analyzer) on lysate of compound-treated SS cells; assay type: cell-based; details: intact SS cells; for activation at 2000 µM: 2 mM compound; for activation at 2000 µM / activation at 5000 µM: read-out: increase in Hb oxygen affinity (ΔP50); for activation at 5000 µM: 5 mM compound; for effect on Hb affinity for oxygen: 2 mM and/or 5 mM
T1 construct: Leftover blood samples from patients with homozygous SS were obtained and utilized; from tissue; host or cells: blood (red cells, then hemolysate) of patients with homozygous SS
Text: as §1, §2

Hb [2] = target: T2, Hb (Homo sapiens, UniProt P68871+P69905); assay: In vitro time-dependent Hb oxygen equilibrium study using normal whole blood; assay type: in vitro ADME; details: 2 mM; normal whole blood 30% hct; 37° C.; 1, 4 and 24 hr
T2 construct: Normal whole blood was collected from adult donors; from tissue; host or cells: normal whole blood of adult donors
Protocol: Materials and General Procedure: Normal whole blood was collected from adult donors at the Virginia Commonwealth University after informed consent, in accordance with regulations of the IRB for Protection of Human.
Experimental procedure: MMA-409 and the control 5-HMF were used to conduct time-dependent studies on Hb oxygen oxygen equilibrium using normal whole blood. The study was performed in a 96-well deep well (Thermo Scientific) plate, where each compound at 2 mM concentration was added to 600 μL of whole blood (30% hct) and incubated at 37° C. for 24 hr with shaking (at 140 rpm). Additionally, DMSO (1%) alone was also tested as a negative control. At 1, 4 and 24 hr time intervals, 75 μL aliquot of blood was removed from each well using a multichannel pipette and the reaction stopped by freezing at −80° C. until ready for hemoximetry analysis using Hemox™ Analyzer (TCS Scientific Corp.) to assess P50 shifts.^32 The observed P50 shifts values in % P50 shifts were plotted as function of time [hrs].

Hb [3] = target: T1, Hb; assay: Hb adduct formation study by cation-exchange HPLC after incubation with intact SS cells; assay type: cell-based; details: 2 mM and/or 5 mM
Text: as §1
(§3) Experimental Procedure: The MMA series of compounds (MMA-301, MMA-304, MMA-205, MMA-401, MMA-402, MMA-403, MMA-405, MMA-406, MMA-407, MMA-408, MMA-409 and MMA-410) and the positive controls vanillin and 5-HMF were studied for their abilities to inhibit hypoxia-induced RBC sickling (RBC morphology study), increase Hb oxygen, and/or modify Hb (adduct formation) as previously published.^31,33 Briefly, homozygous SS blood (hematocrit: 20%) suspensions were incubated under air in the absence or presence of 2 and/or 5 mM concentration of test compounds at 37° C. for 1 hr. Following, the suspensions were incubated under hypoxic condition (2.5% oxygen) at 37° C. for 2 hr. Aliquot samples were fixed with 2% glutaraldehyde solution without exposure to air, and then subjected to microscopic morphological analysis. The residual samples were washed in phosphate-buffered saline, and hemolyzed in hypotonic lysis buffer for the Hb oxygen equilibrium and Hb adduct experiments. […]

α- or β-globin chains = target: T3, α- or β-globin chains (Homo sapiens, UniProt P68871+P69905, E7V); assay: Reversed-phase HPLC of hemolysates for binding to α- or β-globin chains; assay type: cell-based; details: 2 mM and 5 mM; intact SS cells; reverse-phase HPLC
T3 construct: Leftover blood samples from patients with homozygous SS were obtained and utilized; from tissue; host or cells: blood (red cells, then hemolysate) of patients with homozygous SS
Text: as §1, §3

βCys93 of Hb = βCys93 of Hb (Homo sapiens, UniProt P68871); assay: Reactivity toward βCys93 of Hb (DTNB disulfide exchange, absorbance at 412 nm); assay type: biochemical; details: 2 mM compound, Hb 50 μM, four hours at 25° C.
Protocol: Experimental Procedure: Aqueous solution of Hb (50 μM) was mixed with MMA 409 or MMA 410 (2 mM). Additionally, Hb was mixed with phosphate buffered saline (PBS) to serve as a negative control. […] Ethacrynic acid, which is known to bind to the thiols of hemoglobin and thus limits the reaction between DTNB (5,5′-dithiobis-(2-nitrobenzoic acid) and βCys93, was studied as a positive control.^42 The mixtures were incubated for four hours at 25° C., and then centrifuged with washing to separate excess reagents from the Hb. The washed hemoglobin was stored overnight at 4° C. After, 5 μL of 100 mM DTNB was added to 25 μL of each Hb solution, and these solutions were each diluted to 500 μL in 0.1 M phosphate buffer and were incubated for an hour. Another 25 μL of each Hb solution was diluted to 500 μL in buffer to serve as a non-DTNB control. The tubes containing these solutions were centrifuged, and the collected yellow filtrate was quantified by measuring absorbance at 412 nm using a spectrophotometer as previously described.^42

[4] = in-vivo; aldehyde protected by L-cysteine; cited from earlier work

## O=Cc1ccc(CO)o1 [5-HMF, 5-Hydroxymethylfurfural]
Intact SS cells; 2 mM compound
  RBC sickling (reduced to): 50%
Intact SS cells; 5 mM compound
  RBC sickling (reduced to): 14%
Hb [1]
  activation at 2000 µM: 33%
Hb [2]
  time course of biological activity (P50 shift) over 24 hr: declined rapidly

## CC(=O)/C=C/c1ncc[nH]1 [MMA-301, (E)-4-(1H-imidazol-2-yl)but-3-en-2-one]
Hb [1]
  activation at 2000 µM: 12.7%
  activation at 5000 µM: 18.2%

## NC(=O)C(=O)c1ncc[nH]1 [MMA-304]
Hb [1]
  activation at 2000 µM: 16.5%
  activation at 5000 µM: 22.1%

## O=C(O)/C=C/c1ccc(CO)o1 [MMA-401, (E)-3-(5-(hydroxymethyl)furan-2-yl)acrylic acid]
other
  melting point: 138 °C

## NC(=O)/C=C/c1ccc(CO)o1 [MMA-403, (E)-3-(5-(hydroxymethyl)furan-2-yl)acrylamide]
other
  melting point: 131 to 156 °C

## CC(=O)/C=C/c1ccc(CO)o1 [MMA-404, (E)-4-(5-(hydroxymethyl)furan-2-yl)but-3-en-2-one]
other
  melting point: 20 °C

## COCc1ccc(C(=O)C(F)(F)F)o1 [MMA-405, 2,2,2-trifluoro-1-(5-(methoxymethyl)furan-2-yl)ethan-1-one]
Hb [1]
  effect on Hb affinity for oxygen: no effect

## COC(=O)/C=C/c1ccc(CO)o1 [MMA-406, methyl (E)-3-(5-(hydroxymethyl)furan-2-yl)acrylate]
Hb [1]
  effect on Hb affinity for oxygen: no effect
other
  melting point: 66 °C

## C=CC(=O)c1ccc(COc2ccccc2)o1 [MMA-409]
Intact SS cells; 2 mM compound
  RBC sickling (reduced to): 49%
Intact SS cells; 5 mM compound
  RBC sickling (reduced to): 18%
Hb [1]
  activation at 2000 µM: 22%
  activation at 5000 µM: 52%
Hb [3]
  Hb modification (adduct formation): significant Hb modification
α- or β-globin chains
  adduct formation with globin chain: exclusive adduct formation with the β-chain
βCys93 of Hb
  % free thiols of βCys93: 46%
Hb [2]
  time course of biological activity (P50 shift) over 24 hr: sustained throughout the 24 hr experiment

## C#CC(=O)c1ccc(COc2ccccc2)o1 [MMA-410]
βCys93 of Hb
  % free thiols of βCys93: 54%

## C=C(CC)C(=O)c1ccc(OCC(=O)O)c(Cl)c1Cl [ethacrynic acid, Ethacrynic acid, reference compound]
βCys93 of Hb
  % free thiols of βCys93: 54%

## O=C(O)C1CSC(c2ccc(CO)o2)N1 (centres unmarked) [thiazolidine complex of 5-HMF]
[4]
  extension of 5-HMF half-life: 2 fold

## COc1cc(C=O)ccc1O [vanillin, reference compound]
Intact SS cells; 2 mM compound
  RBC sickling (reduced to): 57%
Intact SS cells; 5 mM compound
  RBC sickling (reduced to): 36%
Hb [1]
  activation at 2000 µM: 12%
  activation at 5000 µM: 27%
